This test relates to CEM cells HIV-1 protection, formazan growth assay. The experiment in a line: NCI AIDS Antiviral Assay. The following applies: for pIC50: measured here: growth of uninfected CEM cells. Put shortly:
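Category rules: moderately active means at least 50% protection on retest, and confirmed active means 100% protection reproducibly. The underlying data came from a formazan growth assay in HIV-1-infected CEM cells.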

The source of these data is PubChem BioAssay AID179 (DTP/NCI, 2004).

The structures appear in SMILES notation. pEC50, pIC50: −log10 of the molar value. Active and inactive are the calls of the source.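 How the source made its calls: active means compounds giving half or more protection of infected cells from virus-caused growth loss, again on retest; inactive means the rest.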 Where a SMILES comes first, the peptide text is derived from it. The star is where a group is joined. Fmoc = O=C(OCC1c2ccccc2-c2ccccc21)*; Boc = CC(C)(C)OC(=O)* A value given as a limit tells only on which side of the number the result lay.

Broadly, the pEC50 is −log10 of the EC50, conventionally taken in molar units. One may read the pIC50 as the IC50 on a negative log10 scale, so that one unit is a factor of ten. Take `Cc1cn(C2CC(OC(c3ccccc3)(c3ccccc3)c3ccccc3)C(COC(c3ccccc3)(c3ccccc3)c3ccccc3)O2)c(=O)[nH]c1=O` (stereo not drawn): the pEC50 was less than 3.70 and the pIC50 is less than 3.70.

Consider `COC(=O)C(=O)C1(CCC(C)=O)c2ccccc2-c2c(C)ccc(C)c21` (stereo not drawn), for which the outcome was inactive.

As to `CCN(CC)CCCNc1nnc2c(=O)n(C)c(=O)n(C)c2n1`, the pEC50 is less than 3.70 and the pIC50 is less than 3.70.

Regarding `Cc1c(N)c2ccccc2c(=O)n1C`, the pEC50 is less than 2.95 and the negative logarithm of the IC50 (pIC50) is 3.52.

For the molecule `c1ccc(SCN2CCN(CSc3ccccc3)CC2)cc1`, the pEC50 was less than 4.52 and the negative-log IC50 (pIC50) is 5.24.

Take `C/C(Sc1ccccc1)=C1/CCCN(Cc2ccccc2)C1`: the pEC50 was less than 3.70 and the pIC50 was 4.13.

Take `O=C1c2cccc3c2C(=O)c2c(cccc21)OCCOCCOCCOCCO3`: the outcome was inactive.

As to `COCOC1C(=O)N(c2ccccc2)[C@@H]1c1ccccc1` (stereo partly drawn), the pEC50 was less than 4.04 and the pIC50 is less than 4.04.

As for `CC1=C(/C=C/C(C)=C/C=C/C(C)=C/C=C/C=C(C)/C=C/C=C(C)/C=C/C2=C(C)C(=O)C(O)CC2(C)C)C(C)(C)CC(O)C1=O` (stereo not drawn), the pEC50 is less than 4.36 and the pIC50 is less than 4.36.

Consider `CCCCc1ccc(N=C(N)N)cc1`, for which the pEC50 was less than 3.70 and the negative logarithm of the IC50 (pIC50) was 4.54.

Turning to `COC(=O)/C(=N\NC(=O)c1ccccc1O)C(C#N)c1ccc(Cl)cc1` (stereo not drawn), the pEC50 was less than 3.32 and the negative logarithm of the IC50 (pIC50) is 6.04.

On to `CC(NC1=NCCO1)c1ccccc1Cl` (stereo not drawn), for which the outcome was inactive.

On to `C=CCn1c(=S)sc2c(C(=O)OCC)c3c(C)cc(C)cn3c2c1=O`, for which the pEC50 was less than 5.41 and the pIC50 was less than 5.41.

Take `CCCCCCCCCCCC1=C(O)C(N[C@@H]2CCCCC2N)=CC(=O)C1=O` (stereo partly drawn): the pEC50 was less than 5.43 and the negative-log IC50 (pIC50) is less than 5.43.

Turning to `CC(C)(C)OC(=O)NCCCCC(NC(=O)C(Cc1c[nH]c2ccccc12)NC(=O)OCC1c2ccccc2-c2ccccc21)C(=O)O` (stereo not drawn) (Fmoc-Trp-Lys(Boc)-OH; configuration not given here), the pEC50 is less than 3.70 and the pIC50 is 3.99.

Take `O=S(=O)(O)CCCNC(CO)(CO)CO`: the pEC50 is less than 3.70 and the pIC50 was less than 3.70.

For `Cc1cn(C2CC(O)C(CN=[N+]=[N-])O2)c(=O)[nH]c1=O` (stereo not drawn), the pEC50 is less than 3.03 and the pIC50 was less than 3.03.

Take `N#CC12CCCC(=O)N1c1ccccc1S2` (stereo not drawn): the pEC50 was less than 3.71 and the pIC50 was 3.98.

Consider `N#CN/C(N)=N/S(=O)(=O)c1ccc([N+](=O)[O-])cc1`, for which the pEC50 was less than 3.03 and the pIC50 was 3.59.

Consider `OC1=CN=C(c2ccccc2)Oc2ccccc21`, for which the pEC50 is less than 4.80 and the negative logarithm of the IC50 (pIC50) was less than 4.80.

Take `O=[N+]([O-])c1ccc(/C=C/c2ccc(N=Nc3ccc(/C=C/c4ccc([N+](=O)[O-])cc4S(=O)(=O)O)c(S(=O)(=O)O)c3)cc2S(=O)(=O)O)c(S(=O)(=O)O)c1`: the pEC50 is 4.90 and the negative logarithm of the IC50 (pIC50) is less than 3.70.

Turning to `Cn1c(=O)cc(C=Nc2ccc(O)cc2)c2ccccc21`, the pEC50 was less than 3.70 and the pIC50 was 5.76.

Consider `COC(=O)Cc1c([C@@]2(C)CCCC(C)(C)C2)ccc2c1C(=O)OC2`, for which the result was inactive.

As for `OCCCN(Cc1ccccc1)CC(O)c1ccc(OCc2ccccc2)c(OCc2ccccc2)c1` (stereo not drawn), the pEC50 was less than 3.70 and the pIC50 is 5.02.

For the molecule `O=C(NCCc1c[nH]c2ccccc12)C1CCCCC1`, the pEC50 was less than 3.70 and the pIC50 is 4.17.

On to `O=c1[nH]c(Nc2ccc(Cl)c(C(F)(F)F)c2)nc2nc[nH]c12`, for which the pEC50 was less than 3.70 and the pIC50 was 4.05.

On to `COC(=O)C(C)Oc1ccc(O)cc1` (stereo not drawn), for which the pEC50 is less than 2.90 and the pIC50 is less than 2.90.

Consider `Clc1cc(Cl)cc(C2SCc3nc4ccccc4n32)c1` (stereo not drawn), for which the outcome was inactive.

In the case of `O=C1CNS(=O)(=O)N1`, the pEC50 is less than 2.74 and the negative logarithm of the IC50 (pIC50) is less than 2.74.

`NC(=O)CNC(=O)c1ccccc1SC(=O)NCCBr` showed a pEC50 of 5.70 and a pIC50 of 5.00.

With `O=[N+]([O-])c1ccc(NCCS(=O)(=O)O)c([N+](=O)[O-])c1`, the pEC50 is less than 3.10 and the pIC50 was less than 3.10.

As to `CN(C(=O)c1ccc(Cl)cc1)C(=S)N1CCN(c2ccccn2)CC1`, the pEC50 is less than 4.16 and the pIC50 was 4.21.

Consider `CCOCc1cc(=O)c2c(O)cc3c(c2o1)CCC(C)(C)O3`, for which the outcome was inactive.

Turning to `C[C@]12CC[C@H](O)CC1=CC[C@@H]1C2CC[C@@]2(C)C1CC[C@@H]2c1ncc(-c2ccccc2)s1` (stereo partly drawn), the pEC50 was less than 4.94 and the negative logarithm of the IC50 (pIC50) is less than 4.94.

As to `Cc1cccc(NC(=O)c2cc3cc(N=Nc4ccccc4Cl)ccc3oc2=O)c1`, the pEC50 was less than 4.62 and the pIC50 was less than 4.62.

Take `Cn1c2c(c3ccccc31)CCN=C2C1CCCOC1=O` (stereo not drawn): the pEC50 was less than 3.70 and the negative logarithm of the IC50 (pIC50) was less than 3.70.

On to `O=C1CCCC/C1=C/c1ccc(Cl)cc1`, for which the outcome was inactive.

For `Cc1cc(-c2c(Br)cc(C(=O)O)n2C)on1`, the pEC50 is less than 3.70 and the negative-log IC50 (pIC50) was less than 3.70.

`CC(=O)OC/C=C(/C)C[P+](c1ccccc1)(c1ccccc1)c1ccccc1`: the pEC50 is less than 3.70 and the negative logarithm of the IC50 (pIC50) is 6.02.

For `CC(CCCOC(c1ccccc1)(c1ccccc1)c1ccccc1)OC(=O)Nc1ccccc1` (stereo not drawn), the pEC50 was less than 4.54 and the negative-log IC50 (pIC50) was less than 4.54.

For the molecule `O=C(O)c1[nH]c(=O)[nH]c(=O)c1I`, the pEC50 was less than 3.70 and the negative-log IC50 (pIC50) was less than 3.70.

Take `Nc1nnc2c(n1)[nH]c1ccccc12`: the pEC50 is less than 4.13 and the pIC50 is less than 4.13.

Consider `CCOC(=O)CC1=N/C(=N/C(=N)N[N+](=O)[O-])SC1`, for which the outcome was inactive.

Consider `CC(C)(C)C(=O)C(Cc1ccccc1)C(=O)C(C)(C)C`, for which the outcome was inactive.

On to `CC12CCC(C(=O)OC1=O)C(C)(C)O2` (stereo not drawn), for which the pEC50 was less than 3.70 and the pIC50 was less than 3.70.

As for `NC(=O)NC(S(=O)(=O)O)S(=O)(=O)O`, the result was inactive.

As for `COc1cccc(NC(=O)CC(=O)N2N=C(C)C(N=Nc3ccc(S(=O)(=O)c4ccc(N=NC5C(=O)N(C(=O)CC(=O)Nc6cccc(OC)c6)N=C5C)cc4)cc3)C2=O)c1` (stereo not drawn), the pEC50 was 3.75 and the pIC50 was less than 3.70.

On to `CC(=O)Nc1ccc2cc3[nH]c4cc(NC(C)=O)ccc4c3nc2c1`, for which the pEC50 was less than 3.70 and the negative logarithm of the IC50 (pIC50) was 4.75.

As for `CC(C)CCC[C@@H](C)C1CCC2[C@@H]3CC=C4C[C@@H](OP(=O)([O-])OCC[N+](C)(C)C)CC[C@]4(C)C3CC[C@@]21C` (stereo partly drawn), the pEC50 is less than 4.40 and the pIC50 is 4.69.

Consider `CC(C)=Nn1cnc(C(=N)C#N)c1N`, for which the pEC50 was less than 3.70 and the negative-log IC50 (pIC50) is less than 3.70.

In the case of `CC1CC(C)(C)NCCNC(C)CC(C)(C)NCCN1` (stereo not drawn), the pEC50 is 3.71 and the negative logarithm of the IC50 (pIC50) was less than 3.70.

As to `[N-]=[N+]=NC1C[C@H](n2cc(/C=C/Br)c(=O)[nH]c2=O)C[C@@H]1CO` (stereo partly drawn), the pEC50 is less than 3.44 and the pIC50 is 3.45.

Turning to `N#CC(C#N)=C/C=C/c1c(Cl)cccc1Cl`, the pEC50 is less than 3.70 and the pIC50 was 5.59.

Regarding `CC1=NNC(=O)C1`, the pEC50 was less than 3.70 and the negative-log IC50 (pIC50) was 4.18.
